test system: rabbit normal intraocular pressure; assay: Intraocular pressure reducing action; format: in vivo, Japanese white rabbit; conditions: Oryctolagus cuniculus, topical; 3 mM aqueous solution, 50 μl to the left eye; max IOP reduction (2, 4, 6 hours) / value immediately before administration; read-out: intraocular pressure reducing degree
Method: A Japanese white rabbit having a body weight of about 2 kg was placed in a positioner and naturalized for one week before the experiment. An opthalmologic local anesthesant (Benoxil) was administered to both eyes, and then intraocular pressure was measured by using a tonometer (Classic 30, Solan). A 3 mM aqueous solution of a test compound was administered in a volume of 50 μl to the left eye, and the right eye was not treated (control eye). The intraocular pressure values were measured for the left and right eyes immediately before, and 2, 4 and 6 hours after the administration of the aqueous solution of the test compound, and the difference of the measured values for the left and right eyes was considered an intraocular pressure reduction value of the test medicament at each measurement time. The largest difference of the values for the left and right eyes among the measured values at the measurement times (after 2, 4 and 6 hours) was considered the maximum intraocular pressure reduction value (max ? IOP) of each test medicament. The intraocular pressure reducing degree representing the intraocular pressure reducing action of each test medicament was calculated according to the following formula. Since rabbits show significant daily variation of intraocular pressure, daily variation is added when change of intraocular pressure is measured over time, and the intraocular pressure reducing action may be overestimated. Therefore, we used this calculation method of intraocular pressure reduction value in order to minimize the influence of the variation. Intraocular pressure reducing degree(%)=(max ? IOP/Intraocular pressure value immediately before administration)×100

Row | Structure (SMILES) | inhibition in vivo at 3000 µM [%]
1 | CC(=O)NCCC(=O)NC1CCN(S(=O)(=O)c2cccc3cncc(Cl)c23)C1 (stereo in doubt) [Example 97, (R)-3-[(3-Acetylamino)propionyl]amino-1-(4-chloro-5-isoquinolinesulfonyl)pyrrolidine] | 10 to 20
2 | N#Cc1cncc2cccc(S(=O)(=O)N3CC[C@H](N)C3)c12 [Example 13-1, (S)-3-Amino-1-(4-cyano-5-isoquinolinesulfonyl)pyrrolidine] | 5 to 10
3 | N[C@H]1CCN(S(=O)(=O)c2cccc3cncc(-c4cnoc4)c23)C1 [Example 24-1, (S)-3-Amino-1-[4-(4-isoxazolyl)-5-isoquinolinesulfonyl]pyrrolidine] | 5 to 10
4 | CC(=O)N[C@H]1CCN(S(=O)(=O)c2cccc3cncc(Cl)c23)C1 [Example 49-1, (S)-3-(Acetylamino)-1-(4-chloro-5-isoquinolinesulfonyl)pyrrolidine] | 10 to 20
5 | O=S(=O)(c1cccc2cncc(Cl)c12)N1CC[C@H](NC2CCOC2)C1 (stereo partly drawn) [Example 59-1, (3S)-3-(3-Tetrahydrofuranyl)amino-1-(4-chloro-5-isoquinolinesulfonyl)pyrrolidine] | 10 to 20
6 | NCC1CCCCN1S(=O)(=O)c1cccc2cncc(Cl)c12 (centres unmarked) [Example 61, 2-(Aminomethyl)-1-(4-chloro-5-isoquinolinesulfonyl)piperidine] | 10 to 20
7 | CN(C)CC(=O)N(C)[C@H]1CCN(S(=O)(=O)c2cccc3cncc(Cl)c23)C1 [Example 66-1, (S)-3-[N-(2-Dimethylamino)acetyl-N-methyl]amino-1-(4-chloro-5-isoquinolinesulfonyl)pyrrolidine] | 5 to 10
8 | COCC(=O)N(C)[C@H]1CCN(S(=O)(=O)c2cccc3cncc(Cl)c23)C1 [Example 67-1, (S)-3-[N-(2-Methoxyacetyl)-N-methyl]amino-1-(4-chloro-5-isoquinolinesulfonyl)pyrrolidine] | 10 to 20
9 | COCC(=O)N[C@H]1CCN(S(=O)(=O)c2cccc3c(O)ncc(Cl)c23)C1 [Example 68-1, (S)-3-(2-Methoxyacetyl)amino-1-(1-hydroxy-4-chloro-5-isoquinolinesulfonyl)pyrrolidine] | 5 to 10
10 | COCC(=O)N[C@H]1CCN(S(=O)(=O)c2cccc3cncc(C)c23)C1 [Example 70, (S)-3-(2-Methoxyacetyl)amino-1-(4-methyl-5-isoquinolinesulfonyl)pyrrolidine] | ≥ 20
11 | Cc1cncc2cccc(S(=O)(=O)N3CC[C@H](NC(=O)CN(C)C)C3)c12 [Example 72, (S)-3-[2-(Dimethylamino)acetyl]amino-1-(4-methyl-5-isoquinolinesulfonyl)pyrrolidine] | 10 to 20
12 | CN(C)CC(=O)N[C@H]1CCN(S(=O)(=O)c2cccc3cncc(Br)c23)C1 [Example 73, (S)-3-[(2-Dimethylamino)acetyl]amino-1-(4-bromo-5-isoquinolinesulfonyl)pyrrolidine] | 10 to 20
13 | O=C(CO)N[C@H]1CCN(S(=O)(=O)c2cccc3cncc(Cl)c23)C1 [Example 74, (S)-3-(2-Hydroxyacetyl)amino-1-(4-chloro-5-isoquinolinesulfonyl)pyrrolidine] | 10 to 20
14 | O=C(CCO)N[C@H]1CCN(S(=O)(=O)c2cccc3cncc(Cl)c23)C1 [Example 75, (S)-3-(3-Hydroxypropionyl)amino-1-(4-chloro-5-isoquinolinesulfonyl)pyrrolidine] | 10 to 20
15 | O=C(CCOc1ccccc1)N[C@H]1CCN(S(=O)(=O)c2cccc3cncc(Cl)c23)C1 [Example 76, (S)-3-(3-Phenoxypropionyl)amino-1-(4-chloro-5-isoquinolinesulfonyl)pyrrolidine] | 10 to 20
16 | COCCC(=O)N[C@H]1CCN(S(=O)(=O)c2cccc3cncc(Cl)c23)C1 [Example 77, (S)-3-(3-Methoxypropionyl)amino-1-(4-chloro-5-isoquinolinesulfonyl)pyrrolidine] | ≥ 20
17 | CN(C)CCC(=O)N[C@H]1CCN(S(=O)(=O)c2cccc3cncc(Cl)c23)C1 [Example 78, (S)-3-[3-(Dimethylamino)propionyl]amino-1-(4-chloro-5-isoquinolinesulfonyl)pyrrolidine] | 10 to 20
18 | CSCCC(=O)N[C@H]1CCN(S(=O)(=O)c2cccc3cncc(Cl)c23)C1 [Example 79, (S)-3-[3-(Methylthio)propionyl]amino-1-(4-chloro-5-isoquinolinesulfonyl)pyrrolidine] | 10 to 20

Row | Structure (SMILES) | inhibition in vivo at 3000 µM [%]
19 | O=C(CCn1ccnc1)N[C@H]1CCN(S(=O)(=O)c2cccc3cncc(Cl)c23)C1 [Example 81, (S)-3-[3-(1H-Imidazol-1-yl)propionyl]amino-1-(4-chloro-5-isoquinolinesulfonyl)pyrrolidine] | 10 to 20
20 | O=C(CCn1cnnn1)N[C@H]1CCN(S(=O)(=O)c2cccc3cncc(Cl)c23)C1 [Example 82, (S)-3-[3-(1H-Tetrazol-1-yl)propionyl]amino-1-(4-chloro-5-isoquinolinesulfonyl)pyrrolidine] | 5 to 10
21 | O=C(Cn1cncn1)N[C@H]1CCN(S(=O)(=O)c2cccc3cncc(Cl)c23)C1 [Example 84, (S)-3-[2-(1H-1,2,4-Triazol-1-yl)acetyl]amino-1-(4-chloro-5-isoquinolinesulfonyl)pyrrolidine] | 10 to 20
22 | O=C(Cn1ccnc1)N[C@H]1CCN(S(=O)(=O)c2cccc3cncc(Cl)c23)C1 [Example 86, (S)-3-[2-(1H-Imidazol-1-yl)acetyl]amino-1-(4-chloro-5-isoquinolinesulfonyl)pyrrolidine] | 10 to 20
23 | O=C(CN1CCCC1=O)N[C@H]1CCN(S(=O)(=O)c2cccc3cncc(Cl)c23)C1 [Example 87, (S)-3-[2-(2-Oxopyrrolidin-1-yl)acetyl]amino-1-(4-chloro-5-isoquinolinesulfonyl)pyrrolidine] | 10 to 20
24 | O=C(CN1CCOCC1)N[C@H]1CCN(S(=O)(=O)c2cccc3cncc(Cl)c23)C1 [Example 88, (S)-3-[2-(Morpholin-1-yl)acetyl]amino-1-(4-chloro-5-isoquinolinesulfonyl)pyrrolidine] | 10 to 20
25 | CN1CCN(CC(=O)N[C@H]2CCN(S(=O)(=O)c3cccc4cncc(Cl)c34)C2)CC1 [Example 89, (S)-3-[2-(4-Methylpiperazin-1-yl)acetyl]amino-1-(4-chloro-5-isoquinolinesulfonyl)pyrrolidine] | 5 to 10
26 | N#CCC(=O)N[C@H]1CCN(S(=O)(=O)c2cccc3cncc(Cl)c23)C1 [Example 90, (S)-3-(2-Cyanoacetyl)amino-1-(4-chloro-5-isoquinolinesulfonyl)pyrrolidine] | 10 to 20
27 | O=C(CN1CCNCC1)N[C@H]1CCN(S(=O)(=O)c2cccc3cncc(Cl)c23)C1 [Example 91, (S)-3-[2-(piperazin-1-yl)acetyl]amino-1-(4-chloro-5-isoquinolinesulfonyl)pyrrolidine] | 10 to 20
28 | O=C(CN1CCN(CCO)CC1)N[C@H]1CCN(S(=O)(=O)c2cccc3cncc(Cl)c23)C1 [Example 92, (S)-3-[2-[4-(2-Hydroxyethyl)piperazin-1-yl]acetyl]amino-1-(4-chloro-5-isoquinolinesulfonyl)pyrrolidine] | 10 to 20
29 | O=C(CN1CCOC1=O)N[C@H]1CCN(S(=O)(=O)c2cccc3cncc(Cl)c23)C1 [Example 93, (S)-3-[2-(2-Oxooxazolidin-3-yl)acetyl]amino-1-(4-chloro-5-isoquinolinesulfonyl)pyrrolidine] | 10 to 20
30 | O=C(CNC(=O)c1ccccc1)N[C@H]1CCN(S(=O)(=O)c2cccc3cncc(Cl)c23)C1 [Example 94, (S)-3-[(2-Benzoylamino)acetyl]amino-1-(4-chloro-5-isoquinolinesulfonyl)pyrrolidine] | 10 to 20
31 | O=C(CNC(=O)c1cccnc1)N[C@H]1CCN(S(=O)(=O)c2cccc3cncc(Cl)c23)C1 [Example 95, (S)-3-[(2-Nicotinamino)acetyl]amino-1-(4-chloro-5-isoquinolinesulfonyl)pyrrolidine] | 10 to 20
32 | COCCOCC(=O)N[C@H]1CCN(S(=O)(=O)c2cccc3cncc(Cl)c23)C1 [Example 98, (S)-3-[2-(2-Methoxyethoxy)acetyl]amino-1-(4-chloro-5-isoquinolinesulfonyl)pyrrolidine] | ≥ 20
33 | COCCOCCOCC(=O)N[C@H]1CCN(S(=O)(=O)c2cccc3cncc(Cl)c23)C1 [Example 99, (S)-3-[2-[2-(2-Methoxyethoxy)ethoxy]acetyl]amino-1-(4-chloro-5-isoquinolinesulfonyl)pyrrolidine] | 10 to 20
34 | NC(C(=O)N[C@H]1CCN(S(=O)(=O)c2cccc3cncc(Cl)c23)C1)c1ccccc1 (stereo partly drawn) [Example 106, (S)-3-[(2-Amino-2-phenyl)acetyl]amino-1-(4-chloro-5-isoquinolinesulfonyl)pyrrolidine] | ≥ 20
35 | O=C(COc1ccc2nncn2n1)N[C@H]1CCN(S(=O)(=O)c2cccc3cncc(Cl)c23)C1 [Example 107, (S)-3-[2-([1,2,4]Triazolo[4,3-b]pyridazin-6-yloxy)acetyl]amino-1-(4-chloro-5-isoquinolinesulfonyl)pyrrolidine] | 10 to 20
